“Also recorded” adds a separate entry of the source.

Data on 3 substances can be found in patent US7741283B2, “Compositions and methods for inhibiting cell proliferation” (St. Louis University, priority 2003, dated 2010).

In test [1] the test system is TβR-V purified from bovine liver plasma membranes. Nature of the test: 125I-IGFBP-3 / 125I-TGF-β1 affinity labeling of purified TβR-V. The following applies: DSS, β1^25(41-65) 20 μM, RAP 10-40 μg/ml, α2M* 100 nM, lactoferrin 100 nM. The format is binding.
The next test relates to TβR-V. Kind of test: 125I-ligand affinity labeling (binding and cross-linking) in Mv1Lu cells. The arrangement: species or system mink. Here is the method: FIG. 2 depicts the effects of RAP on ^125I-IGFBP-3 (A) and ^125I-TGF-β1 binding (B) to TβR-V and on IGFBP-3-induced inhibition of DNA synthesis (C) in Mv1Lu cells. (A,B) Cells were incubated with ^125I-IGFBP-3 (10 nM) or ^125I-TGF-β1 (0.1 nM) in the presence of various concentrations of RAP as indicated. After 2.5 hr at 0° C., the ^125I-IGFBP-3-TβR-V complex or ^125I-TGF-β1-TGF-β receptor complexes were cross-linked by DSS and analyzed by autoradiography. The relative intensity of the ^125I-IGFBP-3-TβR-V complex or ^125I-TGF-β1-TGF-β receptor complex on the dried gel was quantified by a PhosphoImager. The arrow indicates the location of the ^125I-TGF-β-TβR-V complex or the ^125I-IGFBP-3-TβR-V complex. The bracket indicates the locations of the ^125I-TGF-β1-TβR-III and -TβR-II complexes. The ^125I-TGF-β1-TβR-I complex co-migrated with the dye front. The ^125I-TGF-β1-TβR-II complex can be seen upon longer time exposure of the autoradiogram. (C) Cells were incubated with various concentrations, as indicated, of IGFBP-3 and GST-RAP (100 μg/ml). […] After further incubation for 10 hr, the DNA synthesis of cells was determined by measuring [methyl-^3H] thymidine incorporation into cellular DNA. […]
Mv1Lu cells are a well-established model system for investigating TGF-β activities and receptor functions. […] After further incubation for 10 hr, DNA synthesis of the cells was determined.

Test [2] relates to IRS-2. Kind of test: 32P metabolic labeling and immunoprecipitation of IRS-2, MB102-9 cells. The format is cell-based, mink. The following applies: MB102-9 cells (αIβII); IGFBP-3 1 μg/ml, GM-CSF 1 nM.
Test [3] deals with IRS-2. Nature of the test: 32P metabolic labeling and immunoprecipitation of IRS-2, MB102-16 cells. Conditions: MB102-16 cells (αIβI); IGFBP-3 1 μg/ml, GM-CSF 1 nM. The format is cell-based, mink.
For the next test, the system named is DR26 cells. Kind of test: [methyl-3H] thymidine incorporation, DR26 cells. The following applies: DR26 cells, in the presence of insulin. The format is cell-based, mink. Here is the method:
(A,B) DR26 cells were incubated with various concentrations as indicated of IGFBP-3 in the absence (A) and presence (B) of various concentrations of insulin. After 18 hr at 37° C., the [methyl-^3H] thymidine incorporation into cellular DNA was determined. (C,D,E) Mv1Lu, DR26 and R1B cells metabolically labeled with ^[…]-orthophosphate for 2 hr were treated with IGFBP-3 (1:g/ml) or insulin (10 nM) (C). DR26 cells metabolically labeled with ^[…]-orthophosphate for 2 hr were treated with or without IGFBP-3 (1 μg/ml) in the presence of various concentrations of TGF-β1 as indicated (D). Mv1Lu cells expressing αIβI and αIβII chimeric receptors (MB102-16 and MB102-9 cells, respectively) metabolically labeled with ^[…]-orthophosphate for 2 hr were treated with or without IGFBP-3 (1 μg/ml) or GM-CSF (1 nM) (E). After 2 hr at 37° C. (in the absence of […]-orthophosphate in the medium), the ^[…]-labeled IRS-2 was immunoprecipitated and analyzed by 7.5% SDS-PAGE and autoradiography. […]
Mv1Lu cells were plated on 24-well clustered dishes and incubated with various concentrations of TGF-β1 or IGFBP-3 in DMEM containing 0.1% fetal calf serum. After incubation at 37° C. for 18 hr, the cells were pulse-labeled with 1 μCi of [methyl-^3H]thymidine at 37° C. for 2 hr and the [methyl-^3H] thymidine incorporation into cellular DNA was determined as described previously (59). […]
Background: Uptake of a labelled nucleoside into DNA is a usual measure of proliferation.

A further test concerns 32D/IR/IRS-2 cells. Kind of test: [methyl-3H] thymidine incorporation, 32D/IR/IRS-2 cells. In kind it is cell-based, murine. The following applies: insulin 10 nM.
Test [4] has as its system IRS-2. Nature of the test: 32P metabolic labeling and immunoprecipitation of IRS-2, Mv1Lu cells. The format is cell-based, mink. The following applies: Mv1Lu, IGFBP-3 1 μg/ml […] then factor 10 nM (TGF-β1 20 pM) 0.5 hr.
Another test deals with Mv1Lu cells. Kind of test: [methyl-3H] thymidine incorporation (DNA synthesis), Mv1Lu cells. The format is cell-based, mink.

In the case of “RAP: receptor-associated protein, an LRP antagonist which blocks binding of all known ligands to LRP”, the “^125I-TGF-β1 binding to purified TβR-V” value in test [1] (0.1 nM 125I-TGF-β1, […] 0° C.) was “appeared to inhibit”. Also, the “^125I-IGFBP-3 binding to purified TβR-V” value in test [1] (10 nM 125I-IGFBP-3, […] 0° C.) is listed as “appeared to inhibit”. For the same substance, the “^125I-TGF-β1 binding to TβR-V and TβR-III” value in the test with TβR-V (0.1 nM 125I-TGF-β1) is recorded as “only partially inhibited”. In the test with TβR-V (10 nM 125I-IGFBP-3), the “IC50, inhibition of ^125I-IGFBP-3 binding to TβR-V” value was approximately 5 µg/mL.

Turning to “GM-CSF: granulocyte/macrophage colony-stimulating factor”, the figures for the “Specific dephosphorylation (mobility change) of IRS-2” value in the test on IRS-2 [2] and with IRS-2 [3] were “induce moderate specific dephosphorylation” and “only induced specific dephosphorylation (electrophoretic mobility change) of IRS-2 in MB102-9 cells”, respectively.

For insulin: insulin [reference compound], the “Reversal of IGFBP-3 inhibition of DNA synthesis” value in the test on DR26 cells is listed as “completely reversed”. Also, in the test on 32D/IR/IRS-2 cells, the “Effect on IGFBP-3-induced growth inhibition” value was “capable of blocking” and the “Effect on TGF-β1-induced growth inhibition” value is given as “partially reversing”. The “Blocking of IGFBP-3-induced specific dephosphorylation of IRS-2 by growth factors/cytokines” value in the test on IRS-2 [4] was “blocked”. Also, the “Blocking of IGFBP-3-induced growth inhibition” value in the test on Mv1Lu cells (Mv1Lu cells) is “completely blocked”. For the same substance, in the test on Mv1Lu cells (insulin 10 nM or cyclic RGD peptide 0.01 μg/ml alone), the “Effect alone on TGF-β1-induced inhibition of DNA synthesis” value was “did not block; also recorded: Neither insulin (10 nM) nor the cyclic RGD peptide (0.01 μg/ml) alone affected”.
